Experimental data reported in ChEMBL document CHEMBL5154646, “Structure-guided optimization of 1H-imidazole-2-carboxylic acid derivatives affording potent VIM-Type metallo-β-lactamase inhibitors” (Eur J Med Chem, 2022).

Columns and labels:
[1] = Inhibition of bacterial NDM-1 (1 to 270 residues) expressed in Escherichia coli Transetta (DE3) using FC-5 as substrate preincubated with enzyme for 10 mins followed by substrate addition by fluorescence based analysis; set-up: species or system Bacteria
[2] = Inhibition of bacterial recombinant full length C-terminal-TEV-His6-tagged VIM-1 expressed in Escherichia coli Transetta using FC-5 as substrate preincubated with enzyme for 10 mins followed by substrate addition by fluorescence based analysis; set-up: species or system Bacteria
[3] = Inhibition of bacterial VIM-2 (27 to 266 residues) expressed in Escherichia coli Transetta (DE3) using FC-5 as substrate preincubated with enzyme for 10 mins followed by substrate addition by fluorescence based analysis; set-up: species or system Bacteria
[4] = Inhibition of bacterial IMP-1 (1 to 246 residues) expressed in Escherichia coli Transetta (DE3) using FC-5 as substrate preincubated with enzyme for 10 mins followed by substrate addition by fluorescence based analysis; set-up: species or system Bacteria
[5] = Inhibition of bacterial recombinant full length N-terminal-TEV-His6-tagged VIM-5 expressed in Escherichia coli Transetta using FC-5 as substrate preincubated with enzyme for 10 mins followed by substrate addition by fluorescence based analysis; set-up: species or system Bacteria
Escherichia coli [6] = assay: Potentiation of meropenem-induced antibacterial activity against Escherichia coli C1542 expressing VIM-2 assessed as meropenem MIC at 10 ug/ml incubated for 18 to 20 hrs by CLSI based broth microtiter dilution method (reference value: 16 ug/ml); type: functional; conditions: dose 10 µg/ml, time 18-20 hrs
Escherichia coli [7] = assay: Potentiation of meropenem-induced antibacterial activity against Escherichia coli C1542 expressing VIM-2 assessed as fold reduction in meropenem MIC at 10 ug/ml incubated for 18 to 20 hrs by CLSI based broth microtiter dilution method; type: functional; conditions: dose 10 µg/ml; time 18-20 hrs
Escherichia coli [8] = assay: Potentiation of meropenem-induced antibacterial activity against Escherichia coli C1541 expressing VIM-2 assessed as fold reduction in meropenem MIC at 10 ug/ml incubated for 18 to 20 hrs by CLSI based broth microtiter dilution method; type: functional; conditions: dose 10 µg/ml; time 18-20 hrs
Escherichia coli [9] = assay: Potentiation of meropenem-induced antibacterial activity against Escherichia coli C1541 expressing IMP-1 assessed as meropenem MIC at 10 ug/ml incubated for 18 to 20 hrs by broth microtiter dilution method (reference value: 32 ug/ml); type: functional; conditions: dose 10 µg/ml, time 18-20 hrs
Escherichia coli [10] = assay: Potentiation of meropenem-induced antibacterial activity against Escherichia coli C1541 expressing VIM-2 assessed as meropenem MIC at 10 ug/ml incubated for 18 to 20 hrs by CLSI based broth microtiter dilution method (reference value: 16 ug/ml); type: functional; conditions: dose 10 µg/ml, time 18-20 hrs
Escherichia coli [11] = assay: Potentiation of meropenem-induced antibacterial activity against Escherichia coli C1541 expressing IMP-1 assessed as fold reduction in meropenem MIC at 10 ug/ml incubated for 18 to 20 hrs by CLSI based broth microtiter dilution method; type: functional; conditions: dose 10 µg/ml; time 18-20 hrs

Row | SMILES | IC50 [1] [µM] | IC50 [2] [µM] | IC50 [3] [µM] | IC50 [4] [µM] | IC50 [5] [µM] | MIC (Escherichia coli [6]) [µg/mL] | fold change (FC) (Escherichia coli [7]) | fold change (FC) (Escherichia coli [8]) | MIC (Escherichia coli [9]) [µg/mL] | MIC (Escherichia coli [10]) [µg/mL] | fold change (FC) (Escherichia coli [11])
1 | CCCn1ccnc1C(=O)O | > 300 | 15.3 | 2.67 | 58.4 | 18.9 |  |  |  |  |  | 
2 | CCc1ccc(Cn2ccnc2C(=O)O)cc1 | > 300 | > 300 | 5.79 | > 300 | 23.4 |  |  |  |  |  | 
3 | Nc1cccc(Cn2ccnc2C(=O)O)c1 | > 300 | > 300 | 7.76 | > 300 | > 300 |  |  |  |  |  | 
4 | C[S+]([O-])Cn1ccnc1C(=O)O (stereo unspecified) | > 300 | > 300 | 64.1 | > 300 | > 300 |  |  |  |  |  | 
5 | O=C(O)c1nccn1C1CNC1 | > 300 | 26 | 68.1 | > 300 | 104 |  |  |  |  |  | 
6 | O=C(O)c1nccn1Cc1ccc(Cl)s1 | 121 | > 300 | 3.23 | 111 | 9.02 |  |  |  |  |  | 
7 | O=C(O)c1nccn1Cc1cccnc1Cl | > 300 | 30.5 | 0.77 | > 300 | 22 |  |  |  |  |  | 
8 | COC(=O)C(C)n1ccnc1C(=O)O (stereo unspecified) | > 300 | > 300 | > 300 | > 300 | > 300 |  |  |  |  |  | 
9 | O=C(O)c1nccn1Cc1cccc([N+](=O)[O-])c1 | > 300 | > 300 | 3.58 | > 300 | 18.9 |  |  |  |  |  | 
10 | CC(O)Cn1ccnc1C(=O)O (stereo unspecified) | > 300 | > 300 | > 300 | > 300 | > 300 |  |  |  |  |  | 
11 | NCCCn1ccnc1C(=O)O | > 300 | > 300 | 42.9 | > 300 | 68.2 |  |  |  |  |  | 
12 | O=C(O)c1nccn1C1CCCC1 | > 300 | 76.9 | 70.4 | > 300 | > 300 |  |  |  |  |  | 
13 | Cn1ccnc1C(=O)O | > 300 | 227 | > 300 | > 300 | > 300 |  |  |  |  |  | 
14 | O=C(O)c1nccn1Cc1cccs1 | > 300 | 50 | 2.67 | 100 | 28.6 |  |  |  |  |  | 
15 | CCn1ccnc1C(=O)O | > 300 | > 300 | 32 | > 300 | > 300 |  |  |  |  |  | 
16 | O=C(O)c1nccn1Cc1ccco1 | > 300 | 11.7 | 1.55 | 10.3 | 21 |  |  |  |  |  | 
17 | O=C(O)c1nccn1Cc1ccoc1 | > 300 | > 300 | 42.7 | > 300 | > 300 |  |  |  |  |  | 
18 | Nc1ccc(Cn2ccnc2C(=O)O)cc1 | > 300 | > 300 | 30.2 | > 300 | > 300 |  |  |  |  |  | 
19 | CN(C)CCn1ccnc1C(=O)O | > 300 | > 300 | > 300 | > 300 | > 300 |  |  |  |  |  | 
20 | NC(=O)Cn1ccnc1C(=O)O | > 300 | > 300 | 118 | > 300 | > 300 |  |  |  |  |  | 
21 | CC(C)Cn1ccnc1C(=O)O | > 300 | 22.9 | 1.1 | > 300 | 7.02 |  |  |  |  |  | 
22 | CS(=O)(=O)Cn1ccnc1C(=O)O | > 300 | > 300 | 33.6 | > 300 | 249 |  |  |  |  |  | 
23 | O=C(O)c1nccn1Cc1ccc(F)c(F)c1 | > 300 | > 300 | 15.8 | > 300 | 14.9 |  |  |  |  |  | 
24 | O=C(O)c1nccn1C1COC1 | > 300 | > 300 | > 300 | > 300 | > 300 |  |  |  |  |  | 
25 | O=C(O)c1nccn1CCO | > 300 | > 300 | 75.2 | > 300 | > 300 |  |  |  |  |  | 
26 | CCC(C)n1ccnc1C(=O)O (stereo unspecified) | > 300 | 21.3 | 2.04 | > 300 | 31.6 |  |  |  |  |  | 
27 | O=C(O)c1ncc(-c2ccccc2)n1Cc1ccccc1 | 59.2 | 4.31 | 0.015 | > 300 | 0.33 | 1 | 16 | 32 | 32 | 0.5 | 1

Row | SMILES | IC50 [1] [µM] | IC50 [2] [µM] | IC50 [3] [µM] | IC50 [4] [µM] | IC50 [5] [µM] | MIC (Escherichia coli [6]) [µg/mL] | fold change (FC) (Escherichia coli [7]) | fold change (FC) (Escherichia coli [8]) | MIC (Escherichia coli [9]) [µg/mL] | MIC (Escherichia coli [10]) [µg/mL] | fold change (FC) (Escherichia coli [11])
28 | N#CCCn1ccnc1C(=O)O | > 300 | > 300 | 22.2 | > 300 | > 300 |  |  |  |  |  | 
29 | C=CCn1ccnc1C(=O)O | > 300 | > 300 | 46.4 | > 300 | > 300 |  |  |  |  |  | 
30 | O=C(O)c1nc(-c2ccccc2)cn1Cc1ccccc1 | > 300 | > 300 | 79.1 | 9.29 | 48.3 |  |  |  |  |  | 
31 | O=C(O)c1nccn1Cc1ccc(Cl)c(Cl)c1 | 16.4 | 2.83 | 0.014 | 9.25 | 0.052 |  |  |  |  |  | 
32 | C=CCCn1cc(C)nc1C(=O)O | > 300 | > 300 | 13.7 | 4.05 | 90.5 |  |  |  |  |  | 
33 | Nn1ccnc1C(=O)O | > 300 | > 300 | > 300 | > 300 | 30.6 |  |  |  |  |  | 
34 | O=C(O)c1nccn1C1CCC1 | > 300 | 32.1 | 11.8 | 161 | > 300 |  |  |  |  |  | 
35 | O=C(O)c1nccn1Cc1ccc([N+](=O)[O-])cc1 | 114 | 13.9 | 2.7 | 30.2 | 0.065 |  |  |  |  |  | 
36 | CC(C)n1ccnc1C(=O)O | > 300 | 21.2 | 10.1 | > 300 | 133 |  |  |  |  |  | 
37 | Cn1nnnc1SCCn1ccnc1C(=O)O | > 300 | 45.7 | 2.13 | 160 | 16.5 |  |  |  |  |  | 
38 | NCCn1ccnc1C(=O)O | > 300 | > 300 | > 300 | > 300 | > 300 |  |  |  |  |  | 
39 | O=C(O)c1ncc[nH]1 | > 300 | > 300 | 65.4 | > 300 | 30.9 |  |  |  |  |  | 
40 | Cn1cc(Cn2ccnc2C(=O)O)cn1 | > 300 | > 300 | 33.5 | > 300 | 83.9 |  |  |  |  |  | 
41 | COCCn1ccnc1C(=O)O | > 300 | 272 | 15.5 | > 300 | 101 |  |  |  |  |  | 
42 | Cc1cn(Cc2ccccc2)c(C(=O)O)n1 | > 300 | > 300 | 10.7 | 1.5 | 31.9 |  |  |  |  |  | 
43 | O=C(O)c1nccn1CCn1ccnn1 | > 300 | > 300 | 6.68 | > 300 | 47.3 |  |  |  |  |  | 
44 | O=C(O)c1nc(C2CC2)cn1Cc1ccccc1 | > 300 | > 300 | 11.5 | 17.8 | > 300 |  |  |  |  |  | 
45 | CC(C(=O)O)n1ccnc1C(=O)O (stereo unspecified) | > 300 | > 300 | 52.4 | > 300 | 32.5 |  |  |  |  |  | 
46 | Cc1ccc(Cn2ccnc2C(=O)O)cc1 | > 300 | > 300 | 3.47 | > 300 | 139 |  |  |  |  |  | 
47 | CN(C)CCCn1ccnc1C(=O)O | > 300 | > 300 | > 300 | > 300 | > 300 |  |  |  |  |  | 
48 | CSCn1ccnc1C(=O)O | > 300 | 18 | 6.89 | 114 | 64 |  |  |  |  |  | 
49 | O=C(O)c1ncc(C2CC2)n1Cc1ccccc1 | 34.1 | 15.5 | 0.13 | 110 | 0.18 |  |  |  |  |  | 
50 | O=C(O)c1nccn1Cc1ccc(C(F)(F)F)cc1 | > 300 | 17.5 | 0.56 | 53.7 | 0.28 |  |  |  |  |  | 
51 | O=C(O)c1nccn1C1CC1 | > 300 | 29.7 | 19.4 | > 300 | 47.1 |  |  |  |  |  | 
52 | O=C(O)c1nccn1Cc1ccccn1 | > 300 | > 300 | 5.54 | > 300 | > 300 |  |  |  |  |  | 
53 | O=C(O)c1nccn1Cc1ccsc1 | > 300 | 132 | 5.07 | > 300 | 30.3 |  |  |  |  |  | 
54 | N#CCCCn1ccnc1C(=O)O | > 300 | 47.1 | 11.8 | 65.6 | 15.6 |  |  |  |  |  | 
